Consider 29 compounds from US20260223850A1, “SUBSTITUTED PYRROLIDONE COMPOUND, PREPARATION METHOD THEREFOR, COMPOSITION AND APPLICATION THEREOF” (QINGDAO KINGAGROOT CHEMICAL COMPOUND CO., LTD., priority 2023, published 2026).

Where two headings read alike, the source gives them in different places.

For assay [1], the system named is weeds. The assay is described as follows: Activity assay of compositions, soil sealing treatment (S). The conditions noted are these: for pest or weed control at 7.5 g/ha / pest or weed control at 15 g/ha / pest or weed control at 30 g/ha / pest or weed control at 60 g/ha / pest or weed control at 150 g/ha / pest or weed control at 300 g/ha / pest or weed control at 75 g/ha: soil, read-out: Control effect of B applied alone in a corresponding dose (%); for pest or weed control at 300 g/ha: B 300 g a.i./ha. In kind it is in vivo. The text has this: (§1) The required active ingredient B was purchased from a reagent company or a technical material manufacturer or synthesized by a conventional method. The technical materials were all dissolved with acetone solvents and diluted with aqueous solution of 0.1% Tween® 80 emulsifier, which should be used immediately after dilution.
The test soil was quantitatively filled to ¾ of a pot, and then watered from the bottom of the pot to completely wet the soil to saturation. The seeds of the test weeds were accelerated to Just germinate, and then evenly and quantitatively broadcasted on the soil surface, covered with 0.5-1 cm soil according to the sizes of the seeds, and ready for use 72 hours after broadcasting.
Each treatment was repeated 4 times. Four pots were treated each time with 20 weed seeds per pot.
The seeds were planted in a 20 cm*30 cm square box. Water was added to 2-3 cm deep after sowing, then injected with the drug agent using a syringe, stirred evenly, and left to stand for 2 days to dry naturally. The soil was kept moist afterwards.
(§2) A method for investigating absolute numbers was employed. The whole seedlings of the survival weeds were cut along the soil surface with a blade, and the fresh weight of the weeds was weighed by an analytical balance. For dead weeds, the fresh weight thereof was considered zero.
(§3) The investigation was performed 21 days after the treatment for once in total.
(§4) The theoretical fresh weight inhibition rate of a mixed combination of each treatment was calculated by the Gowing method (E0═X+Y−X*Y/100), then compared with the measured inhibition rate (E) to evaluate the type of the combined action of the combination of the two on weeds. The combined action was a synergistic effect when E−E0 >10%; an antagonistic effect when E−E0<−10%; an additional effect when −10%≤E−E0≤10%. An optimal ratio was determined according to factors such as actual control effects, characteristics of herbicides, balance of the formulation, etc.

In assay [2] the test system is weeds. The assay is described as follows: Activity assay of compositions, post-emergence spray treatment of stems and leaves (F). In kind it is in vivo. Particulars: F. How it is done:
as §1
Weeds were cultivated by the pot culture method. […] Weed seeds with plump and uniform grains were selected, soaked in lukewarm water at 25° C. for 6 hours, and accelerated to germinate in a 28° C. biochemical incubator (in darkness). The weed seeds that had just germinated were evenly placed on the surface of the soil and then covered with 0.5-1 cm soil according to the sizes of seeds.
The weeds were cultured in a controllable sunlight greenhouse at 20-30° C., in natural light and with relative humidity of 57%-72%.
Each treatment was repeated 4 times. Three pots with 20 weed seeds sowed per pot were treated each time.
The drug was applied once in total in the experiment. When at 1.5-2 leaf stage, the weeds were thinned out to maintain 10 strains per pot. Thirty strains were kept in each treatment and then continued to be cultured until the 3-4 leaf stage for further treatment.
The well-cultured test materials were evenly placed on a 0.5 m^2 platform and foliage-sprayed by the 3WP-2000-type walking spray tower at a dosage of […] and a spray pressure of 0.3 MPa. After all the drug solution was sprayed, the air valve was closed. And 30 seconds later, the door of the spray tower was opened, and the nutritional bowl was taken out. Next, the air valve was opened, and the spray tube was cleaned by spraying 50 mL of water. The test materials were transferred to and routinely cultured in a greenhouse after the treatment.
as §2, §3
as §4, with “etc. In the formula, X represents the fresh weight inhibition rate of the active ingredient A in a dosage of P; Y represents the fresh weight inhibition rate of the active ingredient B in a dosage of Q. The statistical results are shown in Table 6.” for “etc.”

The mark [3] stands for this setting: Rotala indica, S, B 7.5 g a.i./ha.
[4] abbreviates: Rotala indica, S, B 15 g a.i./ha.
Where [5] appears, read: Rotala indica, S, B 30 g a.i./ha.
Where [6] appears, read: Alisma plantago-aquatica, B 30 g a.i./ha.
[7] abbreviates: Alisma plantago-aquatica, B 60 g a.i./ha.
Where [8] appears, read: Paspalum distichum, S, B 30 g a.i./ha.
The mark [9] stands for this setting: Paspalum distichum, S, B 60 g a.i./ha.
Setting [10] is: Paspalum distichum, S, B 7.5 g a.i./ha.
Setting [11] is: Paspalum distichum, S, B 15 g a.i./ha.
Where [12] appears, read: Rotala indica, S, B 150 g a.i./ha.
Where [13] appears, read: Alisma plantago-aquatica, S, B 3.75 g a.i./ha.
[14] abbreviates: Alisma plantago-aquatica, S, B 7.5 g a.i./ha.
Setting [15] is: Rotala indica, S, B 60 g a.i./ha.

For the compound `CCc1ccc(-n2cnc(C(F)(F)F)n2)nc1Oc1cccc(C(F)(F)F)c1`, in assay [1] (setting [3]), the pest or weed control at 7.5 g/ha is 47.1%. For the same compound, in assay [1] (setting [4]), the pest or weed control at 15 g/ha was found to be 63.6%.

Turning to `CCC[S@@+]([O-])c1c(C(F)(F)F)ccc(C(=O)Nc2nnc(C)o2)c1F`, in assay [1] (setting [4]), the pest or weed control at 15 g/ha came out at 35.8%. Besides, the pest or weed control at 30 g/ha in assay [1] (setting [5]) is 46.6%.

As for `COC(=O)[C@@H](C)O/N=C/c1cc(-n2c(=O)cc(C(F)(F)F)n(C)c2=O)c(F)cc1Cl`, in assay [1] (setting [3]), the pest or weed control at 7.5 g/ha came to 47.9%. Also, the pest or weed control at 15 g/ha in assay [1] (setting [4]) was found to be 56.6%.

With `COCCOC(=O)c1nc(-c2ccc(C(F)(F)F)c(OC)c2F)nc(N)c1OC`, the “Control effect of B applied alone in a corresponding dose (%)” value (from here on “Control effect of B applied alone … (%)”) was determined as 43.5% in assay [2] (Alisma plantago-aquatica, B 3.75 g a.i./ha) and 57.2% in assay [2] (Alisma plantago-aquatica, B 7.5 g a.i./ha).

Regarding `C[C@@H](Oc1nc(F)c(Cl)c(N)c1Cl)C(=O)OCC1CCCO1` (stereo partly shown), the “Control effect of B applied alone … (%)” value is recorded as 38.7% in assay [2] (setting [6]) and 45.6% in assay [2] (setting [7]).

Regarding `CC1(C)CON(Cc2ccc(Cl)cc2Br)C1=O`, in assay [1] (setting [8]), the pest or weed control at 30 g/ha came to 37.8%. Besides, the pest or weed control at 60 g/ha in assay [1] (setting [9]) came out at 51.3%.

On to `CC(C)C12CCC(C)(O1)C(OCc1c(F)cccc1Br)C2` (stereo not shown), for which the pest or weed control at 7.5 g/ha in assay [1] (setting [10]) was found to be 46.3%. Moreover, in assay [1] (setting [11]), the pest or weed control at 15 g/ha was 57.4%.

In the case of `Cc1ccccc1CO[C@@H]1C[C@@]2(C(C)C)CC[C@]1(C)O2` (racemic) [Cinmethylin, cinmethylin], the pest or weed control at 7.5 g/ha in assay [1] (setting [10]) came to 34.8%. Moreover, the pest or weed control at 15 g/ha in assay [1] (setting [11]) amounted to 47.6%.

Turning to `CCOCN(C(=O)CCl)c1c(C)cccc1CC` [Acetochlor, acetochlor], the pest or weed control at 150 g/ha in assay [1] (setting [12]) stood at 46.2%. In addition, the pest or weed control at 300 g/ha in assay [1] (Rotala indica, S) stood at 66.5%.

In the case of `COP(=S)(OC)SCC(=O)N(c1ccc(Cl)cc1)C(C)(C)C` [Anilofos, anilofos], in assay [1] (Rotala indica), the pest or weed control at 75 g/ha amounted to 22.4% and the pest or weed control at 150 g/ha worked out at 31.8%.

Turning to `CC(C)N1C(=O)c2ccccc2NS1(=O)=O` [Bentazone, bentazone, reference compound], the “Control effect of B applied alone … (%)” value is recorded as 29.2% in assay [2] (Paspalum distichum, B 375 g a.i./ha) and 36.7% in assay [2] (Paspalum distichum, B 750 g a.i./ha).

Take `CS(=O)(=O)c1ccc(C(=O)C2=C(Sc3ccccc3)C3CCC(C3)C2=O)c(Cl)c1` (stereo not shown) [Benzobicyclon, benzobicyclon]: the results for the “Control effect of B applied alone … (%)” value in assay [1] (setting [4]) and in assay [1] (setting [5]) were 32.8% and 49.6%, respectively.

With `Cc1nn(C)cc1C(=O)Oc1c(C(=O)c2ccc(C(F)(F)F)cc2S(C)(=O)=O)c(C)nn1C` [Bipyrazone, bipyrazone], the results for the “Control effect of B applied alone … (%)” value in assay [1] (setting [4]) and in assay [1] (setting [5]) were 24.5% and 38.8%, respectively.

On to `CC1(C)CON(Cc2ccc(Cl)cc2Cl)C1=O` [Bixlozone, bixlozone], for which the “Control effect of B applied alone … (%)” value in assay [1] (setting [8]) was found to be 41.7%; in assay [1] (setting [9]) it was 52.8%.

Take `CCCCOCN(C(=O)CCl)c1c(CC)cccc1CC` [Butachlor, butachlor]: the pest or weed control at 150 g/ha in assay [1] (setting [12]) amounted to 42.4%. Besides, in assay [1] (Rotala indica, S), the pest or weed control at 300 g/ha worked out at 58.6%.

On to `CC1(C)CON(Cc2ccccc2Cl)C1=O` [Clomazone, clomazone], for which the pest or weed control at 30 g/ha in assay [1] (setting [8]) stood at 44.3%. Further, the pest or weed control at 60 g/ha in assay [1] (setting [9]) worked out at 51.5%.

On to `COc1c(Cl)ccc(-c2nc(C(=O)OCc3ccccc3)c(Cl)c(N)c2F)c1F` [Florpyrauxifen-benzyl, florpyrauxifen-benzyl], for which the “Control effect of B applied alone … (%)” value in assay [1] (setting [13]) was determined as 62.8%; in assay [1] (setting [14]) it was 74.6%.

In the case of `Nc1c(Cl)c(F)nc(OCC(=O)O)c1Cl` [Fluroxypyr, fluroxypyr, reference compound], the “Control effect of B applied alone … (%)” value in assay [2] (setting [6]) is listed as 52.5%; in assay [2] (setting [7]), 65.8%.

For `COC(=O)c1nc(-c2ccc(Cl)c(OC)c2F)cc(N)c1Cl` [Halauxifen-methyl, halauxifen-methyl], the “Control effect of B applied alone … (%)” value was 58.4% in assay [1] (setting [13]) and 68.9% in assay [1] (setting [14]).

Turning to `CN(C(=O)COc1nc2ccccc2s1)c1ccccc1` [Mefenacet, mefenacet], the pest or weed control at 150 g/ha in assay [1] (setting [12]) was determined as 38.4%. Besides, the pest or weed control at 300 g/ha in assay [1] (Rotala indica, S) came out at 58.3%.

For the compound `CC(C)Oc1cc(-n2nc(C(C)(C)C)oc2=O)c(Cl)cc1Cl` [Oxadiazon, oxadiazon], in assay [1] (setting [5]), the pest or weed control at 30 g/ha is 50.5%. Also, in assay [1] (setting [15]), the pest or weed control at 60 g/ha amounted to 68.7%.

Take `CC1=C(c2ccccc2)C(=O)N(C(C)(C)c2cc(Cl)cc(Cl)c2)CO1` [Oxaziclomefone, oxaziclomefone]: in assay [1] (setting [10]), the pest or weed control at 7.5 g/ha came to 36.9%. Also, the pest or weed control at 15 g/ha in assay [1] (setting [11]) amounted to 48.5%.

`CCOc1cc(Oc2ccc(C(F)(F)F)cc2Cl)ccc1[N+](=O)[O-]` [Oxyfluorfen, oxyfluorfen]: the pest or weed control at 7.5 g/ha in assay [1] (setting [3]) was 51%. The pest or weed control at 15 g/ha in assay [1] (setting [4]) amounted to 69.3%.

In the case of `CC(C)=C1OC(=O)N(c2cc(OC3CCCC3)c(Cl)cc2F)C1=O` [Pentoxazone, pentoxazone], in assay [1] (Rotala indica), the pest or weed control at 30 g/ha is 55.3% and the pest or weed control at 60 g/ha was 62.7%.

Regarding `CCCOCCN(C(=O)CCl)c1c(CC)cccc1CC` [Pretilachlor, pretilachlor], in assay [1] (Rotala indica, S, B 75 g a.i./ha), the pest or weed control at 75 g/ha was determined as 54.2%. In addition, in assay [1] (setting [12]), the pest or weed control at 150 g/ha worked out at 63.9%.

On to `C#CCN(C)c1c(C#N)cnn1-c1nn2c(c1Cl)CCCC2` [Pyraclonil, pyraclonil], for which the “Control effect of B applied alone … (%)” value was found to be 48.2% in assay [1] (setting [5]) and 63.4% in assay [1] (setting [15]).

Regarding `CCNc1nc(NCC)nc(SC)n1` [Simetryn, simetryn], in assay [1] (Paspalum distichum), the pest or weed control at 75 g/ha came out at 45.5% and the pest or weed control at 150 g/ha turned out to be 54.8%.

On to `CS(=O)(=O)c1ccc(C(=O)C2C(=O)CCCC2=O)c(Cl)c1COCC1CCCO1` (stereo not shown) [Tefuryltrione, tefuryltrione], for which the results for the “Control effect of B applied alone … (%)” value in assay [1] (setting [4]) and in assay [1] (setting [5]) were 30.8% and 45.2%, respectively.

Consider oxadiargyl, for which the results for the “Control effect of B applied alone … (%)” value in assay [1] (setting [3]) and in assay [1] (setting [4]) were 47.2% and 58.6%, respectively.
